{"source": "patent US20040121410A1", "about": "“Pain signaling molecules” (priority 2002, published 2004)", "key": {"[1]": {"test_system": "γ2-MSH-induced calcium release in HEK-MrgC11", "test": "γ2-MSH-induced [Ca2+]i response in HEK-MrgC11 with pathway inhibitors", "assay_type": "cell-based, human", "settings": "HEK-MrgC11, 1 μM γ2-MSH; 10 μM U73122 or U73343 10 min pretreatment; 1 μM TG in 2 mM EGTA", "procedure": "(§1) Cells loaded with Fura-2/AM were stimulated with each agonist and fluorescence was recorded. Graphs represent an average plot of [Ca^2+]i measurements versus time (in s) in a minimum of 8 cells from representative experiments. Individual data points represent images taken at 0.8-s intervals. […] After a 10 minute pretreatment with U73122 and U73343, each agonist was added. FIGS. 2B and E show the extracellular [Ca^2+] dependency of Ca^2+ mobilization. Cells were preincubated for 2 minutes with 2 mM EGTA (open circles) or normal medium containing 1.2 mM calcium (closed circles) and then 3 μM FLRFa or 1 μM γ2-MSH was added. […] In the presence of 2 mM EGRA, TG (1 μM final concentration) was added to deplete internal Ca^2+ stores.\n(§2) The calcium source responsible for the initial peak in [Ca^2+]i was determined by depleting internal calcium stores with the application of 1 μM TG (FIGS. 2C and F).\n(§3) Heterotrimeric G proteins of the Gαi and Gαq class are involved in the propagation of signals from GPCRs leading to [Ca^2+]i elevation (Guderman et al. Ann. Rev. Pharmacol. Toxicol. 36:429-459 (1996)). To determine whether Gαi/o proteins are involved in the [Ca^2+]i response, we pretreated HEK-MrgA1 or HEK-MrgC11 cells with PTX (100 ng/ml) for 16 h. […] The dose dependency in [Ca^2+]i responses for both receptors were not affected by PTX (FIGS. 4A and D)."}, "[2]": {"test_system": "FLRFa-induced calcium release in HEK-MrgA1", "test": "FLRFa-induced [Ca2+]i response in HEK-MrgA1 with pathway inhibitors", "assay_type": "cell-based, human", "settings": "HEK-MrgA1, 3 μM FLRFa; 10 μM U73122 or U73343 10 min pretreatment; 1 μM TG in 2 mM EGTA", "procedure": "as §1, §2, §3"}}, "note": "Entries after “also recorded” stand apart in the source; their conditions may differ.", "data": [{"smiles": "C/C=C(/C)C(=O)O[C@H]1C(C)=C2[C@H]([C@@H]1OC(=O)CCCCCCC)[C@@](C)(OC(C)=O)C[C@H](OC(=O)CCC)[C@@]1(O)[C@H]2OC(=O)[C@@]1(C)O", "note": "[TG, thapsigargin]", "values": [{"measurement": "effect on γ2-MSH-induced calcium response", "setting": "[1]", "result": "prevents; also recorded: blocked the response"}, {"measurement": "effect on FLRFa-induced calcium response", "setting": "[2]", "result": "prevents; also recorded: blocked the response"}]}]}
